According to patent publication US20210278408A1, “METHODS OF TREATMENT OF CANCER WITH SUBSTITUTED PYRROLE AND PYRAZOLE COMPOUNDS AND DIAGNOSIS OF CANCERS SUSCEPTIBLE TO TREATMENT WITH SUBSTITUTED PYRROLE AND PYRAZOLE COMPOUNDS” (Bantam Pharmaceutical, LLC, priority 2018, published 2021):
Entries after “also recorded” stand apart in the source; their conditions may differ.

Experiments:
[1] = test system: BJAB (malignant human B-cell-line); test: BJAB cell proliferation; assay type: cell-based; settings: BJAB (malignant human B-cell-line) cell proliferation, EC50; read-out: BJAB
HCT-116 [2] = test: Cell proliferation, Cell-Titre Glo, 72 hours: HCT-116; assay type: cell-based; settings: Homo sapiens, mean ± std. dev.
Experimental: (§1) NHLF, BJAB, SU-DHL-2, and HCT-116 cells were treated with Compound A197 for 4 hours prior to lysate harvest. Total cellular glutathione (GSH) levels were determined using a luminescent endpoint (GSH-Glo, Promega). Cell proliferation was determined using Cell-Titre Glo following 72 hours of compound treatment. All data shown is mean±SD of three biological replicates.

Cytoskeletal = test: High content imaging screen: cytoskeletal; assay type: cell-based; settings: actin or microtubule localization or structure
Experimental: (§2) Mechanism of Action Screens A series of broad high content imaging, transcriptomic, metabolomic, and CRISPR KO screens were performed to link Compound A197 activity to a probable method of action. The outcome of these screens included two notable observations.

[3] = test system: ATF4, ATF6, ERN1/XBP1 and cell cycle regulated genes; test: mRNA expression profiling by QPCR in NHLF, HCT-116, HAP1 and SU-DHL-2; assay type: cell-based, human; settings: 5 μM, 8 hrs
Experimental: FIG. 11 is a graph of expression of ATF4, ATF6, Xbp1, and cell cycle regulated genes in Compound A197 responsive cell lines. All cells were treated with 5 […] Compound A197 for 8 hrs, then RNA was isolated and specific gene expression determined by qPCR. All data are represented as Log2 Fc. *=p<0.05, n=3.
ATF4-mediated gene expression profile is induced by compounds. ATF4 activation is closely aligned with activation of ER stress and the related TF's ATF6, ERN1 and XBP1. To determine the role of each transcription factor, a set of fifteen genes were selected to evaluate the specificity of the response as related ATF4 and to other transcription factors. […] These genes can be regulated in a variety of ways and so reflect an outcome of compound action: cell cycle arrest.
Four cell lines were chosen for gene expression profiling. Normal Human Lung Fibroblasts were chosen as an example of a non-responsive cell line. The colorectal cancer cell line HCT-116 and the chronic myelogenous leukemia line HAP1 were chosen as examples of cell lines responsive to compound undergoing growth arrest. The diffuse large B-Cell lymphoma line SU-DHL-2 was chosen as a cell line undergoing growth arrest and apoptosis. […] RNA recovery is determined using a NanoDrop nucleic acid quantification device. […] The change in gene expression relative to vehicle is calculated using Expression Analysis software (ThermoFisher).

NHLF = test: Apoptosis, 72 hr: NHLF; assay type: cell-based, human
Cell cycle = test: High content imaging screen: cell cycle; assay type: cell-based
Experimental: as §2

[4] = test system: NHLF, BJAB, SU-DHL-2, and HCT-116 cells; test: Total cellular GSH levels (GSH-Glo), all lines; assay type: cell-based, human; settings: tumor lines HCT-116, BJAB
Experimental: Total cellular GSH levels are reduced in tumor lines treated with Compound A197 The therapeutic compounds will cause a dose dependent reduction in total cellular glutathione in HCT-116, BJAB, SU-DHL-2, but not in NHLF cells. The maximum reduction of cellular GSH is in the range of 43-69%. The reduction In GSH levels appears independent of apoptosis.
as §1

BJAB [5] = test: Total cellular GSH levels (GSH-Glo): BJAB; assay type: cell-based, human; settings: 4 hrs, mean ± std. dev.
Experimental: as §1

HCT-116 [6] = test: Total cellular GSH levels (GSH-Glo): HCT-116; assay type: cell-based, human; settings: 4 hrs, mean ± std. dev.
Experimental: as §1

GPCR = test: In vitro assays: GPCR; assay type: biochemical; settings: 69 family members
Gene Expression = test: Transcriptomic screen; assay type: cell-based
Experimental: as §2

BJAB [7] = test: Cell proliferation, Cell-Titre Glo, 72 hours: BJAB; assay type: cell-based; settings: Homo sapiens, mean ± std. dev.
Experimental: as §1

SU-DHL-2 = test: Total cellular GSH levels (GSH-Glo): SU-DHL-2; assay type: cell-based, human; settings: 4 hrs, mean ± std. dev.
Experimental: as §1

Metabolites = test: Metabolomic screen; assay type: cell-based; settings: GSH, ATP/AMP ratio, isocitrate and aconitate
Experimental: as §2

HDAC = test: In vitro assays: HDAC; assay type: biochemical
Experimental: as §2

[8] = Homo sapiens, read-out: GSH IC50 (Abs)

Structure (SMILES)	EC50 [1] [nM]	IC50 (HCT-116 [2]) [nM]	Outcome: Cytoskeletal (Cytoskeletal)	CDKN1A (p21/Waf1) mRNA expression [3]	induction of ATF4, ATF6 or IRE1/Xbp1 regulated genes ([3]; HCT-116, HAP-1, SU-DHL-2, NHLF)	Apoptosis, 72 hr (NHLF)	Outcome: Cell cycle (Cell cycle)	maximum reduction of cellular GSH [4]	GSH % Max reduction (BJAB [5]) [%]	IC50 (BJAB [5]; [8]) [nM]	GSH % Max reduction (HCT-116 [6]) [%]	IC50 (HCT-116 [6]; [8]) [nM]	Outcome: GPCR (GPCR)	Outcome: Gene Expression (Gene Expression)	IC50 (BJAB [7]) [nM]	GSH % Max reduction (SU-DHL-2) [%]	IC50 (SU-DHL-2; [8]) [nM]	Outcome: Metabolites (Metabolites)	Outcome: HDAC (HDAC)
COC(=O)c1c(-c2cccc(F)c2)c(C)nn1-c1nc(C2=CCC(C(F)(F)F)CC2)c(SC(C)C)s1 (single isomer, unassigned) [Compound B19, methyl 4-(3-fluorophenyl)-1-(5-(isopropylthio)-4-(4-(trifluoromethyl)cyclohex-1-en-1-yl)thiazol-2-yl)-3-methyl-1H-pyrazole-5-carboxylate]	< 1000																		
Cc1nn(-c2nc(-c3ccc(C(F)(F)F)cc3)c(SC(C)C)s2)c(C(=O)O)c1-c1cccc(F)c1 [Compound A197, 4-(3-fluorophenyl)-1-(5-(isopropylthio)-4-(4-(trifluoromethyl)phenyl)thiazol-2-yl)-3-methyl-1H-pyrazole-5-carboxylic acid]		530 ± 210	No obvious changes in actin or microtubule localization	increased	preferentially induces ATF4, but not ATF6 or IRE1/Xbp1 regulated genes in three responsive tumor cell lines (HCT-116, HAP-1 and SU-DHL-2) but not in primary NHLF	No	G1 arrest associated with TP53 independent CDKN1A	43-69%	69 ± 11	208 ± 80	43 ± 9	360 ± 720	No activity on 69 family members	induced the ATF4 pathway; also recorded: Induction of ATF pathway; no effect on cell cycle gene	295 ± 110	52 ± 4	120 ± 50	induced specific alterations in redox (decreased GSH), energy (decrease in ATP/AMP ratio), and TCA cycle intermediates (decreased isocitrate/aconitate) in tumor cells but not NHLF; also recorded: Decrease in total GSH levels; decrease in ATP/AMP	No activity on any HDAC
